Results taken from patent US20200024278A1, “COMPOSITION COMPRISING ANTIBIOTIC COMPOUND AND AN HETEROCYCLIC COMPOUND AND THEIR USE IN PREVENTING OR TREATING BACTERIAL INFECTIONS” (MUTABILIS, priority 2016, published 2020).
Counter-ions that a name gives are not always drawn.

Tests used:
Assay in all cases: MIC, broth microdilution (CLSI), substance alone or ATB combined with compound at 4 or 8 μg/mL
Type in all cases: cell-based, A. baumannii
Settings in all cases: Acinetobacter baumannii, substance alone, read-out: MIC
ABA UFR160 = test system: ABA UFR160
In short: (§1)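 Growth inhibition endpoint, read visually after 16-20 h at 35° C in ambient air. Cation-adjusted Mueller-Hinton broth, inoculum 5·10^5 CFU/mL, CLSI M7-A7 protocol.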

ABA UFR155 = test system: ABA UFR155
In short: as §1

ABA UFR159 = test system: ABA UFR159
In short: as §1

ABA UFR154 = test system: ABA UFR154
In short: as §1

ABA UFR151 = test system: ABA UFR151
In short: as §1

ABA UFR158 = test system: ABA UFR158
In short: as §1

ABA 107292 = test system: ABA 107292
In short: as §1

ABA UFR156 = test system: ABA UFR156
In short: as §1

ABA UFR157 = test system: ABA UFR157
In short: as §1

ABA UFR152 = test system: ABA UFR152
In short: as §1

ABA UFR153 = test system: ABA UFR153
In short: as §1

MIC (ABA UFR160): > 32 µg/mL
MIC (ABA UFR155): > 32 µg/mL
MIC (ABA UFR159): > 32 µg/mL
MIC (ABA UFR154): > 32 µg/mL
MIC (ABA UFR151): > 32 µg/mL
MIC (ABA UFR158): > 32 µg/mL
MIC (ABA 107292): > 32 µg/mL
MIC (ABA UFR156): > 32 µg/mL
MIC (ABA UFR157): > 32 µg/mL
MIC (ABA UFR152): 32 µg/mL
MIC (ABA UFR153): 32 µg/mL
SMILES: NCCCn1c2c(sc1=O)C1CN(C2)C(=O)N1OS(=O)(=O)O (centres unmarked) [Example 10, [5-(3-aminopropyl)-4,9-dioxo-3-thia-5,8,10-triaza-tricyclo[6.2.1.0^2,6]undec-2(6)-en-10-yl] hydrogen sulfate]
